Earlier results, collected in patent publication US9072714B2, “Fatty acids for use as a medicament” (Lipid Pharmaceuticals ehf., priority 2008, dated 2015).

Conditions: laxative, by class and site of action

For CCCCC(CC)COC(=O)CC(C(=O)OCC(CC)CCCC)S(=O)(=O)O (centres unmarked) [Docusate], the Onset of action is listed as 12 to 72 h.

In the case of O=C1OC(c2ccc(O)cc2)(c2ccc(O)cc2)c2ccccc21 [Phenolphthalein], the Onset of action is given as 6 to 8 h.
